K data for five compounds are collected here from ChEMBL document CHEMBL1135854, “Absorption studies on aminoglycoside binding to the packaging region of human immunodeficiency virus type-1” (Bioorg Med Chem Lett, 2002).

Each structure is given as a SMILES string.

This experiment concerns Human immunodeficiency virus 1. Put plainly: Binding to 176-mer RNA from the packaging region of HIV-1 (LAI) and value of binding constant K is determined. The class given is functional.

Turning to `NC[C@@H]1O[C@H](O[C@H]2[C@@H](O)[C@H](O[C@@H]3[C@@H](O)[C@H](N)C[C@H](N)[C@H]3O[C@H]3O[C@H](CN)[C@@H](O)[C@H](O)[C@H]3N)O[C@@H]2CO)[C@H](N)[C@@H](O)[C@@H]1O`, the K stood at 120000 M⁻¹.
The result for `NC[C@@H]1O[C@H](O[C@H]2[C@@H](O)[C@H](O[C@@H]3[C@@H](O)[C@H](N)C[C@H](N)[C@H]3O[C@H]3O[C@H](CO)[C@@H](O)[C@H](O)[C@H]3N)O[C@@H]2CO)[C@H](N)[C@@H](O)[C@@H]1O` reads 43000 M⁻¹; that for `N=C(N)NCC1OC(OC2C(CO)OC(OC3C(O)C(NC(=N)N)CC(NC(=N)N)C3OC3OC(CNC(=N)N)C(O)C(O)C3NC(=N)N)C2O)C(NC(=N)N)C(O)C1O` (stereo not given), 100000 M⁻¹; that for `NCC1OC(OC2C(CSCCNc3c4ccccc4nc4ccccc34)OC(OC3C(O)C(N)CC(N)C3OC3OC(CN)C(O)C(O)C3N)C2O)C(N)C(O)C1O` (stereo not given), 16000 M⁻¹.
Then `NCC1O[C@H](O[C@H]2[C@@H](O)[C@H](O[C@H]3[C@H](O)[C@@H](N)C[C@@H](N)[C@@H]3O[C@H]3O[C@H](CN)[C@@H](O)[C@H](O)[C@H]3N)O[C@@H]2CSCCOCCSSCCOCCSC[C@H]2O[C@@H](O[C@H]3[C@H](O)[C@@H](N)C[C@@H](N)[C@@H]3O[C@H]3O[C@H](CN)[C@@H](O)[C@H](O)[C@H]3N)[C@H](O)[C@@H]2O[C@@H]2OC(CN)[C@H](O)[C@@H](O)[C@@H]2N)[C@H](N)[C@@H](O)[C@@H]1O` (stereo not given in full), with 3800 M⁻¹.
